The target of one test is VHL/EloB/EloC (VBC) (Homo sapiens, UniProt P40337). The test can be described thus: SPR, immobilised His-tagged VBC. The test is classed as binding. In general terms: SPR reads the build-up and loss of mass on a sensor chip optically.
The target of a further test is NanoLuc-VHL (Homo sapiens, UniProt P40337). The test can be described thus: NanoBRET tracer displacement, live HEK293T cells. In kind it is cell-based. A general note: BRET reads energy transfer from a luciferase to a nearby fluorophore.
In test [1] the target is VHL:GEMIN3aa41-268 (VBC with purified GEMIN3aa41-268) (Homo sapiens, UniProt P40337+Q9UHI6). The test can be described thus: SPR, immobilised GEMIN3aa41-268, pre-formed VBC:compound complex as analyte. The test is classed as binding.

The structures appear in SMILES notation.

VHL:GEMIN3aa41-268 (VBC with purified GEMIN3aa41-268), sequence (P40337 whole entry, the tested form may be a part): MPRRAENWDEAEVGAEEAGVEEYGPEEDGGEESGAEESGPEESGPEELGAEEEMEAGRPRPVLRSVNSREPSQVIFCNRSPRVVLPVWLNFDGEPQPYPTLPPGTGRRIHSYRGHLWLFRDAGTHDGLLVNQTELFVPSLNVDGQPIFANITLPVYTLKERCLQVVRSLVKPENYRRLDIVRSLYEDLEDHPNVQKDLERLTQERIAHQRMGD
VHL:GEMIN3aa41-268 (VBC with purified GEMIN3aa41-268), sequence (Q9UHI6 41-268): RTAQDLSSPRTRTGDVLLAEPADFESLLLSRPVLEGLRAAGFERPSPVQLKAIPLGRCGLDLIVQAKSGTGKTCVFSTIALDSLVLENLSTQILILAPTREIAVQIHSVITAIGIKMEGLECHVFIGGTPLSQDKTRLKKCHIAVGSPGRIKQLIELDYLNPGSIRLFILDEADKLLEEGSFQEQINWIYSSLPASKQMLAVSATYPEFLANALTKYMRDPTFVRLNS
VHL:GEMIN3aa41-268 (VBC with purified GEMIN3aa41-268), sequence (Q15369 whole entry, further chain, the tested form may be a part): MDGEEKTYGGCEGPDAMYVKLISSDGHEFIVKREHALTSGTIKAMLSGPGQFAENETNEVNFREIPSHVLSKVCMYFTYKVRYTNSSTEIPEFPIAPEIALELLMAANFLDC
VHL:GEMIN3aa41-268 (VBC with purified GEMIN3aa41-268), sequence (Q15370 whole entry, further chain, the tested form may be a part): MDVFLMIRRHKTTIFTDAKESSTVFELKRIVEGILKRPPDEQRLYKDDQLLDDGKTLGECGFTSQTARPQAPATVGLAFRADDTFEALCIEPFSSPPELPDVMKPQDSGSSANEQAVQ
VHL/EloB/EloC (VBC), sequence (Q15369 whole entry): as the sequence (Q15369 whole entry, further chain, the tested form may be a part) above
VHL/EloB/EloC (VBC), sequence (Q15370 whole entry, further chain): as the sequence (Q15370 whole entry, further chain, the tested form may be a part) above
VHL/EloB/EloC (VBC), sequence (P40337 whole entry): as the sequence (P40337 whole entry, the tested form may be a part) above
NanoLuc-VHL, sequence (P40337 whole entry, the tested form may be a part): as above

With `CC(C)(C)[C@H](NC(=O)c1cnn2c1OCCC2)C(=O)N1C[C@H](O)C[C@H]1C(=O)NCc1ccc(-c2ccccc2Cl)cc1` [compound 5, N-((S)-1-((2S,4R)-2-(((2’-chloro-[1,1’-biphenyl]-4-yl)methyl)carbamoyl)-4-hydroxypyrrolidin-1-yl)-3,3-dimethyl-1-oxobutan-2-yl)-6,7-dihydro-5H-pyrazolo[5,1-b][1,3]oxazine-3-carboxamide], the dissociation constant (Kd) (in general, a measure of binding affinity in units of concentration) at VHL/EloB/EloC (VBC) is 74.3 nM. This lies in the double-digit nanomolar range.
For `CC(C)(C)[C@H](NC(=O)c1cnn2c1OCCC2)C(=O)N1C[C@H](O)C[C@H]1C(=O)NCc1ccc(-c2ccc(Cl)cc2Cl)cc1` [compound 1, N-((S)-1-((2S,4R)-2-(((2’,4’-dichloro-[1,1’-biphenyl]-4-yl)methyl)carbamoyl)-4-hydroxypyrrolidin-1-yl)-3,3-dimethyl-1-oxobutan-2-yl)-6,7-dihydro-5H-pyrazolo[5,1-b] [1,3] oxazine-3-carboxamide], the IC50 – broadly, the concentration that gives 50% inhibition – on NanoLuc-VHL was 870 nM. The Kd in test [1] turned out to be 69 nM; on VHL/EloB/EloC (VBC), 217 nM.
With `CC(C)(C)[C@H](NC(=O)c1cnn2c1OCCC2)C(=O)N1C[C@H](O)C[C@H]1C(=O)NCc1ccc(-c2ccc(Cl)cc2)cc1` [compound 4, N-((S)-1-((2S,4R)-2-(((4’-chloro-[1,1’-biphenyl]-4-yl)methyl)carbamoyl)-4-hydroxypyrrolidin-1-yl)-3,3-dimethyl-1-oxobutan-2-yl)-6,7-dihydro-5H-pyrazolo[5,1-b][1,3]oxazine-3-carboxamide], the Kd in test [1] was 487 nM; at VHL/EloB/EloC (VBC) it was 200 nM.
`CC(C)(C)[C@H](NC(=O)c1cnn2c1OCCC2)C(=O)N1C[C@H](O)C[C@H]1C(=O)NCc1ccc(-c2ccccc2)cc1` [compound 6, N-((S)-1-((2S,4R)-2-(([1,1’-biphenyl]-4-ylmethyl)carbamoyl)-4-hydroxypyrrolidin-1-yl)-3,3-dimethyl-1-oxobutan-2-yl)-6,7-dihydro-5H-pyrazolo[5,1-b][1,3]oxazine-3-carboxamide]: the Kd on VHL/EloB/EloC (VBC) is 170 nM.
As for `CC(C)(C)[C@H](NC(=O)c1cnn2c1CCCC2)C(=O)N1C[C@H](O)C[C@H]1C(=O)NCc1ccc(-c2ccc(Cl)cc2Cl)cc1` [compound 3, N-((S)-1-((2S,4R)-2-(((2’,4’-dichloro-[1,1’-biphenyl]-4-yl)methyl)carbamoyl)-4-hydroxypyrrolidin-1-yl)-3,3-dimethyl-1-oxobutan-2-yl)-4,5,6,7-tetrahydropyrazolo[1,5-a]pyridine-3-carboxamide], the Kd in test [1] came out at 73 nM; on VHL/EloB/EloC (VBC), 557 nM.

The values are drawn from article doi:10.1101/2025.03.19.644003v1 (biorxiv, 2025).
